Reference: patent publication US20250026769A1, “PAPD5 INHIBITORS AND METHODS OF USE THEREOF” (The Children's Medical Center Corporation, priority 2021, published 2025)
Read-outs that look alike come from different tables or passages of the source.

How the values were obtained:
rPAPD5 = target: T1, rPAPD5 (Homo sapiens, UniProt Q8NDF8); experiment: differential scanning fluorimetry (DSF) binding and stabilization of rPAPD5; settings: for ΔTm at 1 µM: 1 μM test compound (Table 2a), read-out: ΔTm at 1 μM; for ΔTm at 100 µM: 100 μM test compound, read-out: ΔTm at 100 μM
T1 construct: made in house
T1 sequence (Q8NDF8 68-698 isoform Q8NDF8-5 limits assumed): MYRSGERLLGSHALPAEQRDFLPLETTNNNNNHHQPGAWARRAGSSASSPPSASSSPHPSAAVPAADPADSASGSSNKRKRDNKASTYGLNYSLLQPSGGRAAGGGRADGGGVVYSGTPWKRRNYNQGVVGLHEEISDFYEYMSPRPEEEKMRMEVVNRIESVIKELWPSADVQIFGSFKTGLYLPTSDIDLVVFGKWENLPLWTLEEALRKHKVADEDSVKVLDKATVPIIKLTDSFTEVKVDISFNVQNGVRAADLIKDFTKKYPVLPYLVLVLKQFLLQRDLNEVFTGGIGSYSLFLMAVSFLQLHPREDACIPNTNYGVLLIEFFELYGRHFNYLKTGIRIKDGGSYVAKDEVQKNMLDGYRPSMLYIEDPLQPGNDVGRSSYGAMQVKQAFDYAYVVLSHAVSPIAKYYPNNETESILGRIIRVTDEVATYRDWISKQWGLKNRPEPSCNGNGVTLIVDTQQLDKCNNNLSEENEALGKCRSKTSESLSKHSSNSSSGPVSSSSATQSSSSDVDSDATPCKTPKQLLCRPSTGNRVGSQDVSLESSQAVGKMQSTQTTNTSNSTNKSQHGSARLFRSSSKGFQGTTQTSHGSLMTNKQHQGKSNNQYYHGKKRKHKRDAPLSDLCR
Outline: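 Differential scanning fluorimetry was used to measure how test compounds bind and thermally stabilize rPAPD5. The reaction contained SYPRO orange dye diluted 1:5000 in […] of buffer with […], 25 mM Tris-HCl, 5 mM MgCl2 and 50 mM KCl. ΔTm was calculated relative to a DMSO control.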

[1] = tested on: telomere length in DC patient iPSCs; experiment: telomere length / telomere elongation in DC patient iPSCs; format: cell-based, human; settings: Homo sapiens, iPSC; patient iPSCs; concentration class at which activity is seen; read-out: iPSC-based Telomere length
Procedure: (§1) Compound 266A had activity ˜2-logs higher in the in vitro RNA oligoadenylation assay compared to the parental compound cmpd. 1, approximating the activity of RG7834 (FIG. 7). […] 1. Compounds 295A and 296A had activity 2-3 logs higher in DC patient iPSCs, showing TERC maturation at 1 nM, similar to RG7834 (FIG. 6). […] Referring to Table 1D, “+” refers to activity at 1 μM, “++” refers to activity above 1 nM and below 1 μM, and “+++” refers to activity at <1 nM, “ND” refers to not determined.

[2] = tested on: TERC 3′ end processing in DC patient iPSCs; experiment: TERC 3′ end processing by RACE in DC patient / PARN-mutant iPSCs; format: cell-based, human; settings: Homo sapiens, iPSC; patient iPSCs; concentration class at which activity is seen; read-out: iPSC-based RACE activity
Procedure: as §1

[3] = tested on: hepatitis B surface antigen (HBSAg) from HepG2.2.15 cells, a hepatitis B virus-expressing cell line; experiment: HBsAg ELISA in supernatant of HepG2.2.15 cells; format: cell-based; settings: HepG2.2.15, 96 h
Procedure: HepG2.2.15 cells, a hepatitis B virus-expressing cell line (Sells, M. A. et al., PNAS, 1987), were plated at 50,000 cells/well in DMEM/F12 media (Gibco) with 10% fetal bovine serum (Omega Scientific) in a 24-well or 96-well plate (Corning), in 2-3 replicates for each test compound/concentration plus controls, and incubated in a humidified 5% CO2 chamber at 37° C. The next day, media was aspirated, cells were washed once with phosphate buffered saline, pH7.4 (Gibco), and 1 mL DMEM/12 media was replaced. Test compounds were added in 3-fold dilutions from up to 100 μM down to 333 pM, with vehicle (dimethylsulfoxide (Sigma)) as a control. After four days of culture in a humidified 5% CO2 chamber at 37° C., plates were spun down in a centrifuge at 300 g for 10 minutes at room temperature. Supernatant from each well was collected and either frozen at −20° C. or used directly for quantitation of hepatitis B surface antigen (HBSAg) in an enzyme-linked immunosorbent assay (ELISA). The supernatant was tested using the HBSAg ELISA kit (Abnova Cat. No KA0286) per the manufacturer's instructions. Results of replicates were averaged and nonlinear curve fitting was used to determine the half maximal inhibitory concentration (IC50) for each test compound.

[4] = 10 μM test compound (Table 2a), read-out: ΔTm at 10 μM
[5] = 10 μM test compound, shift vs DMSO control, read-out: ΔTm (Table 2, starred: the compound was tested at 10 μM)

ΔTm at 1 µM (rPAPD5)	ΔTm at 10 µM (rPAPD5; [4])	ΔTm at 100 µM (rPAPD5; shift vs DMSO control)	ΔTm at 10 µM (rPAPD5; [5])	SMILES	minimal effective concentration [1]	minimal effective concentration [2]	IC50 [3]
> 5 °C	> 5 °C	> 5 °C		Cc1nc2ccc(Cl)cc2c(Nc2ccc(Cl)cc2C(=O)O)c1S(=O)(=O)N1CCSCC1 [Compound 423A, 5-chloro-2-[(6-chloro-2-methyl-3-thiomorpholinosulfonyl-4-quinolyl)amino]benzoic acid]	< 0.001 µM	< 0.001 µM	
> 5 °C	> 5 °C		> 5 °C	O=C(O)c1cc(Cl)ccc1Nc1c(S(=O)(=O)N2CCSCC2)cnc2cc(Br)c(Cl)cc12 [Compound 416A, 2-[(7-bromo-6-chloro-3-thiomorpholinosulfonyl-4-quinolyl)amino]-5-chloro-benzoic acid]	< 0.001 µM	< 0.001 µM	
> 5 °C	> 5 °C		> 5 °C	O=C(O)c1cc(Cl)ccc1Nc1c(S(=O)(=O)N2CCSCC2)cnc2c(Br)cc(Cl)cc12 [Compound 422A, 2-[(8-bromo-6-chloro-3-thiomorpholinosulfonyl-4-quinolyl)amino]-5-chloro-benzoic acid]	< 0.001 µM	< 0.001 µM	
1 to 5 °C	> 5 °C		> 5 °C	O=C(O)c1cc(Cl)ccc1Nc1c(S(=O)(=O)N2CCSCC2)cnc2cc(C(F)(F)F)c(Cl)cc12 [Compound 413A, 5-chloro-2-[[6-chloro-3-thiomorpholinosulfonyl-7-(trifluoromethyl)-4-quinolyl]amino]benzoic acid]	< 0.001 µM	< 0.001 µM	

Second part, the compound before the results:

SMILES	ΔTm at 1 µM (rPAPD5)	ΔTm at 10 µM (rPAPD5; [4])	ΔTm at 100 µM (rPAPD5; shift vs DMSO control)	ΔTm at 10 µM (rPAPD5; [5])	minimal effective concentration [1]	minimal effective concentration [2]	IC50 [3]
O=C1CCN(c2cnc3ccc(Cl)cc3c2Nc2ccc(Cl)cc2C(=O)O)CC1 [Compound 395A, 5-chloro-2-[[6-chloro-3-(4-oxo-1-piperidyl)-4-quinolyl]amino]benzoic acid]	> 5 °C	> 5 °C	> 5 °C		< 0.001 µM	1 µM	
Cc1cc2ncc(S(=O)(=O)N3CCSCC3)c(Nc3ccc(Cl)cc3C(=O)O)c2cc1Cl [Compound 411A, 5-chloro-2-[(6-chloro-7-methyl-3-thiomorpholinosulfonyl-4-quinolyl)amino]benzoic acid]	> 5 °C	> 5 °C		> 5 °C	< 0.001 µM	< 0.001 µM	
O=C(O)c1cc(Cl)ccc1Nc1c(S(=O)(=O)N2CCSCC2)cnc2c(C(F)(F)F)cc(Cl)cc12 [Compound 419A, 5-chloro-2-[[6-chloro-3-thiomorpholinosulfonyl-8-(trifluoromethyl)-4-quinolyl]amino]benzoic acid]	> 5 °C	> 5 °C	< 1 °C		< 0.001 µM	< 0.001 µM	
O=C(O)c1cc(Cl)ccc1Nc1c(S(=O)(=O)N2CCSCC2)cnc2cc(Cl)c(Cl)cc12 [Compound 414A, 5-chloro-2-[(6,7-dichloro-3-thiomorpholinosulfonyl-4-quinolyl)amino]benzoic acid]	> 5 °C	> 5 °C		> 5 °C	< 0.001 µM	< 0.001 µM	
O=C(O)c1cc(Cl)ccc1Nc1c(N2CCC(O)CC2)cnc2ccc(Cl)cc12 [Compound 399A, 5-chloro-2-[[6-chloro-3-(4-hydroxy-1-piperidyl)-4-quinolyl]amino]benzoic acid]	> 5 °C	> 5 °C	> 5 °C		< 0.001 µM	< 0.001 µM	
O=C(O)c1cc(Cl)ccc1Nc1c(-c2cn[nH]c2)cnc2ccc(Cl)cc12 [Compound 354A, 5-chloro-2-[[6-chloro-3-(1H-pyrazol-4-yl)-4-quinolyl]amino]benzoic acid]	1 to 5 °C	> 5 °C		> 5 °C		1 µM	3.34 µM
